# Results published in ChEMBL document CHEMBL2384972, “Tricyclic Pyrimidines As Inhibitors of DYRK1A/DYRK1B As Potential Treatment for Down's Syndrome or Alzheimer's Disease” (ACS Med Chem Lett, 2013).
# Experiments:
# [1] = molecular target: Dual specificity tyrosine-phosphorylation-regulated kinase 1B (Homo sapiens, UniProt Q9Y463); assay: Inhibition of recombinant DYRK1B (unknown origin) after 120 mins in presence of [33P]-ATP
# [2] = molecular target: Dual specificity tyrosine-phosphorylation-regulated kinase 1A (Homo sapiens, UniProt Q13627); assay: Inhibition of recombinant DYRK1A (unknown origin) after 120 mins in presence of [33P]-ATP
# Chain of Dual specificity tyrosine-phosphorylation-regulated kinase 1B (Q9Y463 whole entry): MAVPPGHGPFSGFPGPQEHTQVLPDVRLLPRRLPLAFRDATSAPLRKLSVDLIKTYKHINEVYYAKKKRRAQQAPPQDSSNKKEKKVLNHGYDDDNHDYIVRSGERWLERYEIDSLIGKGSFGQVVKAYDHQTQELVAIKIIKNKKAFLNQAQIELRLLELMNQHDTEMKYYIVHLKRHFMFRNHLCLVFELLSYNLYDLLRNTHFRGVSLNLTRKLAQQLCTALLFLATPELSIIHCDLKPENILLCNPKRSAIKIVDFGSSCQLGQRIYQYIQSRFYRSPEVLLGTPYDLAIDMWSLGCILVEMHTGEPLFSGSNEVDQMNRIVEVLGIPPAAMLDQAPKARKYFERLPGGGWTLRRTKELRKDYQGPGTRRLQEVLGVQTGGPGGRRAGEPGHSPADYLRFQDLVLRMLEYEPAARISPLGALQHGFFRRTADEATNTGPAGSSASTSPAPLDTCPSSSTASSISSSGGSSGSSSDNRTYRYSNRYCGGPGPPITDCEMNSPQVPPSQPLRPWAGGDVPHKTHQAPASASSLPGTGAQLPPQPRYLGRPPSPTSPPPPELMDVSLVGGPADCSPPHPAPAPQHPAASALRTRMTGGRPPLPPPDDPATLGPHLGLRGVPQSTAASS
IC50 [1],IC50 [2],SMILES
0.24 nM,0.16 nM,COC(=N)c1nc2ccc3ncnc(Nc4ccc(Br)cc4F)c3c2s1
6.55 nM,3.6 nM,COC(=N)c1nc2ccc3ncnc(Nc4ccc(F)cc4Br)c3c2s1
